Source: patent US20240051985A1, “METTL3 MODULATORS” (ACCENT THERAPEUTICS, INC., priority 2020, published 2024)

Assays:
[1] = target: PRMT5-MEP50 (Homo sapiens, UniProt O14744); test: PRMT5 assay (3H-SAM flashplate); settings: PRMT5 biochemical assay
Description: Assays were performed in a 25 μl-volume in 384-well V-bottom polypropylene microplates (Greiner Bio-One, cat. No. 781280) at ambient temperature. Optimized 1× assay buffer was 20 mM Tris-HCl pH 8.0, 1 mM DTT, […]. For compound screening PRMT5-MEP50 (final concentration, f.c.=2.5 nM) was added using a Multidrop Combi (ThermoFisher Scientific, Waltham, MA) and preincubated for 5 min. Reactions were started by adding 3′ biotinylated histone H4 peptide acetylated on serine 1 (Ac-[…]-Biotin) (f.c.=100 nM) and 3H-SAM (f.c.=250 nM) substrates. Reactions proceeded for 60 minutes and were quenched with excess non-radioactive SAM (f.c.=15 μM). The reactions were then transferred to streptavidin-coated flashplates and incubated for 2 hours at 25° C. Following two washing cycles with 0.1% Tween-20, the plates were sealed and read on a TopCount (PerkinElmer, Waltham, MA) plate-based scintillation counter. For determination of kinetic parameters, reaction times were optimized so that measurements were taken during the initial velocity phase of the reaction.

[2] = target: METTL3/METTL14 (Homo sapiens, UniProt Q86U44); test: METTL3-14 standard enzyme assay (3H-SAM flashplate); settings: METTL3 biochemical assay
Description: METTL3-14 Standard Enzyme Assay
Assays were performed in a 25 μl-volume in 384-well V-bottom polypropylene microplates (Greiner Bio-One, cat. No. 781280) at ambient temperature. Optimized 1× assay buffer was 20 mM HEPES pH 7.5, 50 mM KCl, 250 μM MgCl2, 1 mM DTT, 0.01% Tween, 0.01% BSG, 0.004 U/μl RNAseOUT (cat. No. 10777019, ThermoFisher Scientific, Waltham, MA). For compound screening METTL3/METTL14 (final concentration, f.c.=2.5 nM) was added using a Multidrop Combi (ThermoFisher Scientific, Waltham, MA) and preincubated for 5 min. Reactions were started by adding 3′ biotinylated RNA (UCUGGACUAAA-biotin) (f.c.=100 nM) and 3H-SAM (f.c.=100 nM) substrates. Reactions proceeded for 30 minutes and were quenched with excess non-radioactive SAM (f.c.=15 μM). The reactions were then transferred to streptavidin-coated flashplates and incubated for 2 hours at 25° C. Following two washing cycles with 0.1% Tween-20, the plates were sealed and read on a TopCount (PerkinElmer, Waltham, MA) plate-based scintillation counter. For determination of kinetic parameters, reaction times were optimized so that measurements were taken during the initial velocity phase of the reaction.

PRMT5-MEP50, sequence (O14744 whole entry): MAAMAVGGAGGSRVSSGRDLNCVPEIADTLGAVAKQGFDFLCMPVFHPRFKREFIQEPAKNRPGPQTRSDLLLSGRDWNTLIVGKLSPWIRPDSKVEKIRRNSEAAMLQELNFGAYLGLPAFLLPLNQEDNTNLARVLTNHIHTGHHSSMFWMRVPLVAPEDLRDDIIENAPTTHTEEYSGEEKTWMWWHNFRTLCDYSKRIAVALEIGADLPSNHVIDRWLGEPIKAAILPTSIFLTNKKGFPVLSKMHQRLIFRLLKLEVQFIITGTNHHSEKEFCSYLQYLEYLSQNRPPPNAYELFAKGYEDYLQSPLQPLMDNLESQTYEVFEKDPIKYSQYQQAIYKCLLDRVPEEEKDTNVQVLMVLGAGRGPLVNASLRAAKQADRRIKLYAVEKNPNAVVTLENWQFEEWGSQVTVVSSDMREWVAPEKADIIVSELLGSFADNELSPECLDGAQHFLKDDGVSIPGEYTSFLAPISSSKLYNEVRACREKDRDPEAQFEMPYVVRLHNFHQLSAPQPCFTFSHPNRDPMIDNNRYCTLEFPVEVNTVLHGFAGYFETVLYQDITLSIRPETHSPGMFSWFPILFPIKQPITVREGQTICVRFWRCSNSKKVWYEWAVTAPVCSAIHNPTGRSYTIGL
PRMT5-MEP50, sequence (Q9BQA1 whole entry partner): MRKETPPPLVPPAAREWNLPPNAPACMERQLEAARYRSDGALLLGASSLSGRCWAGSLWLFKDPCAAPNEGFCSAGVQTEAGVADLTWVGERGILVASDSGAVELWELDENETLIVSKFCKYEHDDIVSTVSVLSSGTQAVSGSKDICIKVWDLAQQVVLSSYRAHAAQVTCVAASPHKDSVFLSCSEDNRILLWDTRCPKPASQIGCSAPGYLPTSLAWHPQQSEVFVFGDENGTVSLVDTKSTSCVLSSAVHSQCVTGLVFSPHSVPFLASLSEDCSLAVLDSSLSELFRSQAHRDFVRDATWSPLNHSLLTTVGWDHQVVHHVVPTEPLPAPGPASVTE
METTL3/METTL14, sequence (Q86U44 whole entry, species assumed): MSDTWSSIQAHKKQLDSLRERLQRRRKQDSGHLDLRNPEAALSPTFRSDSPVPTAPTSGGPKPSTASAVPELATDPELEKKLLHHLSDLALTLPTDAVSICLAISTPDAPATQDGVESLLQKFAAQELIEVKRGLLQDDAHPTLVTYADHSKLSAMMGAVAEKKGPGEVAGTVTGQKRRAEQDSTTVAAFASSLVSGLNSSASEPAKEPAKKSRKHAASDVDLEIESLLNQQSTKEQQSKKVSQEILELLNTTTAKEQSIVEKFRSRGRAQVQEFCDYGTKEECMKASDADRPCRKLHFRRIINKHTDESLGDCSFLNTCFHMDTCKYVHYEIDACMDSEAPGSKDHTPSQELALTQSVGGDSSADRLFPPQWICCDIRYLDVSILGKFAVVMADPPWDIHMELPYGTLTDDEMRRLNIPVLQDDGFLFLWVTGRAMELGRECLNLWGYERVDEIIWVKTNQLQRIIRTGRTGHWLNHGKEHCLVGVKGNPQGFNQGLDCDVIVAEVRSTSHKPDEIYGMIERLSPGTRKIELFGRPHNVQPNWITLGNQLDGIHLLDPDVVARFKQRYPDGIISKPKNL
METTL3/METTL14, sequence (Q9HCE5 whole entry partner, species assumed): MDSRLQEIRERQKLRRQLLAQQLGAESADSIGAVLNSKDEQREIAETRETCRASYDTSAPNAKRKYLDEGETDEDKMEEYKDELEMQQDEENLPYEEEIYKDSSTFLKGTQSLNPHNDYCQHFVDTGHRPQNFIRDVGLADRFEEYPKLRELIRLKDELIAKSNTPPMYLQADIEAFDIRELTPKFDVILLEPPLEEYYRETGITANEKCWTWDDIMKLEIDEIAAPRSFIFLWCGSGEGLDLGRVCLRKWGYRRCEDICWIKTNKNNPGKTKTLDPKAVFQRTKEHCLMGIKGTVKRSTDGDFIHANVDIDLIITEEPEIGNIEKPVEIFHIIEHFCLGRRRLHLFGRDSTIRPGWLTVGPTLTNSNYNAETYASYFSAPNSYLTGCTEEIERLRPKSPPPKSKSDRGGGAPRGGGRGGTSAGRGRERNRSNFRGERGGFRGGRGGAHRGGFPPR

Row | Structure (SMILES) | IC50 ([1]; Table 3) | IC50 ([2]; Table 3) | IC50 ([1]; Table 4) | IC50 ([2]; Table 4)
1 | Cn1ccc(-c2cn([C@@H]3O[C@H](C(=O)NC4CCNCC4)[C@@H](O)[C@H]3O)c3ncnc(N)c23)n1 [Compound I-1, (2S,3S,4R,5R)-5-[4-amino-5-(1-methyl-1H-pyrazol-3-yl)-7H-pyrrolo[2,3-d]pyrimidin-7-yl]-3,4-dihydroxy-N-(piperidin-4-yl)oxolane-2-carboxamide] | ≥ 1000 nM | ≥ 1000 nM | – | –
2 | Cn1ccc(-c2cn([C@@H]3O[C@H](C(=O)NCC4CCNCC4)[C@@H](O)[C@H]3O)c3ncnc(N)c23)n1 [Compound I-2] | 10 to 100 nM | 100 to 1000 nM | – | –
3 | COCCNC(=O)[C@H]1O[C@@H](n2cc(-c3ccn(C)n3)c3c(N)ncnc32)[C@H](O)[C@@H]1O [Compound I-3] | ≥ 1000 nM | ≥ 1000 nM | – | –
4 | CN(C)CCNC(=O)[C@H]1O[C@@H](n2cc(-c3ccn(C)n3)c3c(N)ncnc32)[C@H](O)[C@@H]1O [Compound I-4] | 10 to 100 nM | ≥ 1000 nM | – | –
5 | COCCCN(C)C(=O)[C@H]1O[C@@H](n2cc(-c3ccn(C)n3)c3c(N)ncnc32)[C@H](O)[C@@H]1O [Compound I-5] | ≥ 1000 nM | ≥ 1000 nM | – | –
6 | COCCN(C(=O)[C@H]1O[C@@H](n2cc(-c3ccn(C)n3)c3c(N)ncnc32)[C@H](O)[C@@H]1O)C1CCNCC1 [Compound I-6] | < 10 nM | ≥ 1000 nM | – | –
7 | COCCCN(C(=O)[C@H]1O[C@@H](n2cc(-c3ccn(C)n3)c3c(N)ncnc32)[C@H](O)[C@@H]1O)C1CCNCC1 [Compound I-7] | 10 to 100 nM | ≥ 1000 nM | – | –
8 | Cn1ccc(-c2cn([C@@H]3O[C@H](C(=O)N(CCCO)C4CCNCC4)[C@@H](O)[C@H]3O)c3ncnc(N)c23)n1 [Compound I-8] | < 10 nM | 100 to 1000 nM | – | –
9 | Cn1ccc(-c2cn([C@@H]3O[C@H](C(=O)N(CC[C@H](N)C(=O)O)C4CCNCC4)[C@@H](O)[C@H]3O)c3ncnc(N)c23)n1 [Compound I-9] | ≥ 1000 nM | 100 to 1000 nM | – | –
10 | COCCN(C(=O)[C@H]1O[C@@H](n2cc(-c3ccn(C)n3)c3c(N)ncnc32)[C@H](O)[C@@H]1O)c1ccc2ccc(N3CCC3)nc2c1 [Compound I-11] | 100 to 1000 nM | 100 to 1000 nM | – | –
11 | COCCN(C(=O)[C@H]1O[C@@H](n2ccc3c(N)ncnc32)[C@H](O)[C@@H]1O)c1ccc2ccc(N3CCC3)nc2c1 [Compound I-12] | ≥ 1000 nM | ≥ 1000 nM | – | –
12 | Nc1ncnc2c1c(-n1cccn1)cn2[C@H]1C[C@H](O)[C@@H](C(=O)Nc2ccc3ccc(N4CCC4)nc3c2)O1 [Compound I-13] | ≥ 1000 nM | < 10 nM | – | –
13 | Nc1ccnc(NC(=O)[C@H]2O[C@@H](n3cc(-n4cccn4)c4c(N)ncnc43)C[C@@H]2O)c1 [Compound I-18] | ≥ 1000 nM | 10 to 100 nM | – | –
14 | Cn1ccc(-c2cn([C@@H]3O[C@H](C(=O)NCC4CCN(CCO)CC4)[C@@H](O)[C@H]3O)c3ncnc(N)c23)n1 [Compound I-19] | 10 to 100 nM | 100 to 1000 nM | – | –
15 | Cn1ccc(-c2cn([C@@H]3O[C@H](C(=O)NCc4cnccn4)[C@@H](O)[C@H]3O)c3ncnc(N)c23)n1 [Compound I-20] | ≥ 1000 nM | 100 to 1000 nM | – | –
16 | Cn1ccc(-c2cn([C@@H]3O[C@H](C(=O)NCC4CCOCC4)[C@@H](O)[C@H]3O)c3ncnc(N)c23)n1 [Compound I-21] | ≥ 1000 nM | 100 to 1000 nM | – | –
17 | Cn1ccc(-c2cn([C@@H]3O[C@H](C(=O)NCC4CCC(F)(F)CC4)[C@@H](O)[C@H]3O)c3ncnc(N)c23)n1 [Compound I-22] | 100 to 1000 nM | 100 to 1000 nM | – | –
18 | Cn1ccc(-c2cn([C@@H]3O[C@H](C(=O)NCC4CCN(CC(F)F)CC4)[C@@H](O)[C@H]3O)c3ncnc(N)c23)n1 [Compound I-23] | 100 to 1000 nM | ≥ 1000 nM | – | –

Row | Structure (SMILES) | IC50 ([1]; Table 3) | IC50 ([2]; Table 3) | IC50 ([1]; Table 4) | IC50 ([2]; Table 4)
19 | CN1CCC(CNC(=O)[C@H]2O[C@@H](n3cc(-c4ccn(C)n4)c4c(N)ncnc43)[C@H](O)[C@@H]2O)CC1 [Compound I-24] | 10 to 100 nM | 100 to 1000 nM | – | –
20 | CN1CCC(NC(=O)[C@H]2O[C@@H](n3cc(-c4ccn(C)n4)c4c(N)ncnc43)[C@H](O)[C@@H]2O)CC1 [Compound I-25] | 10 to 100 nM | 100 to 1000 nM | – | –
21 | Cn1ccc(-c2cn([C@@H]3O[C@H](C(=O)NCc4ccccc4)[C@@H](O)[C@H]3O)c3ncnc(N)c23)n1 [Compound I-26] | ≥ 1000 nM | 100 to 1000 nM | – | –
22 | CN1CCC(NC(=O)[C@H]2O[C@@H](n3ccc4c(N)ncnc43)[C@H](O)[C@@H]2O)CC1 [Compound I-27] | 100 to 1000 nM | ≥ 1000 nM | – | –
23 | Nc1ncnc2c1ccn2[C@@H]1O[C@H](C(=O)NCC2CCN(CC(F)F)CC2)[C@@H](O)[C@H]1O [Compound I-28] | ≥ 1000 nM | ≥ 1000 nM | – | –
24 | CCNc1ccnc(NC(=O)[C@H]2O[C@@H](n3cc(-n4cccn4)c4c(N)ncnc43)C[C@@H]2O)c1 [Compound I-29] | ≥ 1000 nM | 100 to 1000 nM | – | –
25 | Nc1ncnc2c1c(-n1cccn1)cn2[C@H]1C[C@H](O)[C@@H](C(=O)Nc2ccc3nc(NC4CCC4)[nH]c3c2)O1 [Compound I-30] | 100 to 1000 nM | < 10 nM | – | –
26 | CNc1ccc2ccc(N(CC[C@H](N)C(=O)O)C(=O)[C@H]3O[C@@H](n4cc(-c5ccn(C)n5)c5c(N)ncnc54)[C@H](O)[C@@H]3O)cc2n1 [Compound I-38, (2S)-2-amino-4-{1-[(2S,3S,4R,5R)-5-[4-amino-5-(1-methyl-1H-pyrazol-3-yl)-7H-pyrrolo[2,3-d]pyrimidin-7-yl]-3,4-dihydroxyoxolan-2-yl]-N-[2-(methylamino)quinolin-7-yl]formamido}butanoic acid] | – | – | 100 to 1000 nM | < 10 nM
27 | Cn1ccc(-c2cn([C@@H]3O[C@H](C(=O)N(CC[C@H](N)C(=O)O)c4ccc5nc(N)[nH]c5c4)[C@@H](O)[C@H]3O)c3ncnc(N)c23)n1 [Compound I-39, (2S)-2-amino-4-[N-(2-amino-1H-1,3-benzodiazol-6-yl)-1-[(2S,3S,4R,5R)-5-[4-amino-5-(1-methyl-1H-pyrazol-3-yl)-7H-pyrrolo[2,3-d]pyrimidin-7-yl]-3,4-dihydroxyoxolan-2-yl]formamido]butanoic acid] | – | – | ≥ 1000 nM | 100 to 1000 nM
28 | Cn1ccc(-c2cn([C@@H]3O[C@H](C(=O)NCCc4ccccc4Cl)[C@@H](O)[C@H]3O)c3ncnc(N)c23)n1 [Compound I-133] | – | – | – | 100 to 1000 nM
29 | Cn1ccc(-c2cn([C@@H]3O[C@H](C(=O)NCCc4ccc5ccccc5c4)[C@@H](O)[C@H]3O)c3ncnc(N)c23)n1 [Compound I-134] | – | – | – | 100 to 1000 nM
30 | Cn1ccc(-c2cn([C@@H]3O[C@H](C(=O)Nc4ccc(C(=O)N5CCCCC5)cc4)[C@@H](O)[C@H]3O)c3ncnc(N)c23)n1 [Compound I-135] | – | – | – | 100 to 1000 nM
31 | CNC(=O)c1ccc(NC(=O)[C@H]2O[C@@H](n3cc(-c4ccn(C)n4)c4c(N)ncnc43)[C@H](O)[C@@H]2O)cc1 [Compound I-136] | – | – | – | 100 to 1000 nM
32 | CC(CCc1ccccc1)NC(=O)[C@H]1O[C@@H](n2cc(-c3ccn(C)n3)c3c(N)ncnc32)[C@H](O)[C@@H]1O (stereo partly drawn) [Compound I-137] | – | – | – | 100 to 1000 nM
33 | Cn1ccc(-c2cn([C@@H]3O[C@H](C(=O)Nc4ccc(-n5cnnn5)cc4)[C@@H](O)[C@H]3O)c3ncnc(N)c23)n1 [Compound I-138] | – | – | – | 100 to 1000 nM
34 | Cn1ccc(-c2cn([C@@H]3O[C@H](C(=O)Nc4ccc(OCCN5CCOCC5)cc4)[C@@H](O)[C@H]3O)c3ncnc(N)c23)n1 [Compound I-139] | – | – | – | 100 to 1000 nM
35 | COc1ccc(NC(=O)[C@H]2O[C@@H](n3cc(-c4ccn(C)n4)c4c(N)ncnc43)[C@H](O)[C@@H]2O)cc1Cl [Compound I-140] | – | – | – | 10 to 100 nM
36 | Cc1nc2cc(NC(=O)[C@H]3O[C@@H](n4cc(-c5ccn(C)n5)c5c(N)ncnc54)[C@H](O)[C@@H]3O)ccc2o1 [Compound I-141] | – | – | – | 10 to 100 nM
